“And” between values parts separate entries of the source, which are not always exact repeats. Equal entries are not always repeated.
Assays:
Type in all cases: in vivo
Set-up in all cases: unit not given here
[1] = system: circulating blood mononuclear cells; assay: Circulating blood mononuclear cells of high-fat-fed Syrian golden hamsters (whole blood cell analyzer); settings: gavage twice a day, high-fat feedstuff hamsters, individual animal values (n=13)
Procedure: […] Syrian golden hamsters (LVG hamsters, introduced from Charles River Laboratories) aged 6-8 weeks, weighing 90-120 g, male, SPF grade and purchased from Beijing Vital River Laboratory Animal Technology Co., Ltd.
After 7 days of adaptive feeding, animals were randomly divided into a normal control group (n=13), a high-fat feedstuff group (n=13), an IMMH007 low-dose group (50 mg/kg, n=13), an IMMH007 medium-dose group (100 mg/kg, n=13), and an IMMH007 high-dose group (200 mg/kg, n=13), and they were administered twice a day by gavage. The animals were fed in the Second Department of Animal Experiment Center of the Institute of Materia Medica (IMM) at Chinese Academy of Medical Sciences (CAMS); the feeding condition was SPF grade, the temperature was 21±2 DEG C, relative humidity was 50±5%, lighting cycle was 12/12, and 5 per cage. The normal group was fed with normal basal feedstuff, and the high-fat feedstuff group was fed with high fat feedstuff (79.8% of basal feedstuff, 20% of lard, and 0.2% of cholesterol), and the animals were free to take food and drink. The feedstuff was produced by Beijing HFK Bioscience Co., Ltd.
The animals were fasted for 12 hours, and about 200 ul of blood was taken from the canthus of each eye, the blood was dissolved in 30ul of EDTA-2K anticoagulant (20g/L, prepared with normal saline), mixed slightly to avoid coagulation, and the whole blood cells were analyzed by a whole blood cell analyzer.

[2] = system: circulating blood mononuclear cells; assay: Circulating blood mononuclear cells of high-fat-fed apoE-/- mice (flow cytometry); settings: gavage once a day, high-fat diet apoE-/- mice
Procedure: (§1) ApoE-/-mice (C57BL background), 5-7 weeks old, body weight 18-22 g, male, SPF grade; Purchased from Beijing institute of Laboratory Animal Science.
(§2) After 7 days of adaptive feeding, animals were randomly divided into a high-fat feedstuff group (n=7), an MMH007 low-dose group (50 mg/kg, n=7), an IMMH007 medium-dose group (100 mg/kg, n=7), and an IMMH007 high-dose group (200 mg/kg, n=9), and they were administered once a day by gavage. The animals were fed in the Second Department of Animal Experiment Center of the Institute of Materia Medica (IMM) at Chinese Academy of Medical Sciences (CAMS); the feeding condition was SPF grade, the temperature was 21±2 DEG C, relative humidity was 50±5%, lighting cycle was 12/12, and 5 per cage. All groups were given high-fat diet (70% of basal diet plus 20% of lard and 0.2% of cholesterol) and the animals were free to take food and drink. The feedstuff was produced by Beijing HFK Bioscience Co., Ltd. Body weight was recorded once every week during the experiment.
(§3) The animals were fasted for 12 hours and the following cells were extracted:
(§4) Recirculating blood cells: 50 ul of blood was taken by cardiocentesis, placed in 450 ul of heparin anticoagulant, 1 ml of red blood cell lysis buffer was added, lysed for 10 minutes, centrifuged at 1800 r for 3 min, the supernatant was aspirated, and 100 ul of PBS suspension cells were obtained for subsequent use. The mouse was taken blood from the angular vein to be dead and serum was separated and stored at −80 DEG C.
(§5) Antibodies were added to the above blood cells:
(§6) 3 ul of CD90-PE, 3 ul of B220-PE, 3 ul of CD49b-PE, 3 ul of NK1.1-PE, 3 ul of Ly-6G-PE, 6 ul of CD11b-percp, and 3 ul of Ly-6C-FITC, a single positive tube and a blank control tube were provided, they were incubated with smoothie for 30 min, washed 3 times with PBS, and re-selected cells with 400 ul of PBS, filtered, and flow cytometry was carried out. The mononuclear cells were identified as CD11b^hiCD90^loB220^loCD49b^loNK1.1^loLy-6G^lo cells. […]

[3] = system: circulating blood inflammatory mononuclear cells (Ly6C^hi); assay: Circulating blood inflammatory (Ly6Chi) mononuclear cells of high-fat-fed apoE-/- mice (flow cytometry); settings: gavage once a day, high-fat diet apoE-/- mice
Procedure: as §1, §2, §3, §4, §5, §6

[4] = IMM-H007 50 mg/kg, individual animal values (n=7), 50 mg/kg
[5] = IMM-H007 100 mg/kg, individual animal values (n=7), 100 mg/kg
[6] = IMM-H007 200 mg/kg, individual animal values (n=9), 200 mg/kg

## CC(=O)OCC1OC(n2cnc3c(Nc4cccc(O)c4)ncnc32)C(OC(C)=O)C1OC(C)=O (stereo not drawn) [IMM-H007, Triacetyl-3-Hydroxyphenyladenosine]
[1]; IMM-H007 50 mg/kg, 50 mg/kg
  circulating blood mononuclear cells: 6.63 and 5.31 and 7.58 and 11.2 and 10.1 and 11 and 10.4 and 9.08 and 6.95 and 8.24 and 9.21 and 6.5 and 8.91
[1]; IMM-H007 100 mg/kg, 100 mg/kg
  circulating blood mononuclear cells: 6.23 and 4.18 and 3.87 and 6.05 and 6.02 and 7.99 and 6.79 and 9.61 and 6.42 and 10.4 and 6.8 and 7.54 and 4.56
[1]; IMM-H007 200 mg/kg, 200 mg/kg
  circulating blood mononuclear cells: 4.42 and 6.33 and 9.94 and 9.51 and 10.3 (2×) and 6.28 and 9.61 and 9.85 and 10.8 and 8.52 and 9.23 and 5.7
[2]; [4]
  circulating blood mononuclear cells: 0.54 and 0.49 (2×) and 1.23 and 0.66 and 0.63 and 0.26
[2]; [5]
  circulating blood mononuclear cells: 0.79 and 0.48 and 0.30 and 0.14 and 0.29 and 0.27 and 0.25
[2]; [6]
  circulating blood mononuclear cells: 0.18 (2×) and 0.69 and 0.28 and 0.24 and 0.27 and 0.23 and 0.21 and 0.10
[3]; [4]
  circulating blood inflammatory mononuclear cells: 0.33 and 0.86 and 0.18 and 0.23 and 0.89 and 0.16 and 0.49
[3]; [5]
  circulating blood inflammatory mononuclear cells: 0.31 and 0.19 and 0.32 and 0.29 and 0.30 and 0.89 and 0.26
[3]; [6]
  circulating blood inflammatory mononuclear cells: 0.19 and 0.35 and 0.17 and 0.20 and 0.30 and 0.13 and 0.15 and 0.28 and 0.21
